The source of these data is US20230151024A1, “STING AGONISTIC COMPOUND” (ONO PHARMACEUTICAL CO., LTD., priority 2020, published 2023).

In one experiment the test system is THP1-Dual-STING KO cells. In words: Effects on THP1-Dual-STING KO cells (activity of the IRF pathway). The class given is cell-based. The settings on record: STING gene homozygous deficient THP1-Dual cells, about 24 hours. The method, then: STING gene homozygous deficient THP1-Dual cells (THP1-Dual-STING KO cells (Invivogen) were suspended in RPMI medium to prepare 2×10^6 cells/mL cell suspension. 50 μL of cell suspensions were dispensed into a 96-well plate, to which 50 μL of 6 to 20,000 nM compound solutions were further added, followed by incubation at 37° C. for about 24 hours. 10 μL of the cell suspensions were collected from each well, which were mixed with 50 μL of Quanti-luc (Invivogen), and then the activity of the IRF pathway was measured by detecting luminescence using a microplate reader.

The next experiment addresses T1, IDO1 (Homo sapiens, UniProt P14902).
T1 construct: purchased BPS Bioscience
In words: Evaluation of IDO1 inhibitory activity (IDO1 Fluorogenic Inhibitor Screening Assay Kit). The class given is biochemical. The following applies: compound solutions of 0.6, 2, 6, 20, 60 and 200 μmol/L added. The method, then: The evaluation of IDO1 inhibitory activity was carried out using the IDO1 Fluorogenic Inhibitor Screening Assay Kit (BPS Bioscience). Specifically, IDO1 Fluorogenic Reaction Solution was dissolved, of which 180 μL were added to each well. Then, 10 μL of the compounds at the respective concentrations of 0.6, 2, 6, 20, 60 and 200 μmol/L were added thereto. Further, after adding 10 μL of IDO1 His-Tag solution thereto, and the mixture thereof was incubated at room temperature for 1 hour, and then 20 μL of Fluorescence Solution was added thereto, and the mixture thereof was incubated at 37° C. for 4 hours. After standing them at room temperature for 10 minutes, the fluorescence was measured using a microplate reader (excitation: 400 nm, emission: 510 nm).

Experiment [1] deals with BTK, KDR, each subtype of PKCα to t, each CDK of CDK2 to 9, FAK, TIE2, RAF1 and BRAF. In words: Evaluation of inhibitory activity against various kinases (mobility shift, LabChip). The class given is biochemical. The settings on record: 4 μmol/L test substance solution at 4 times the final concentration. On the procedure:
4 μmol/L of the test substance solution (the compound in the present invention produced in Example 1) (at 4 times the final concentration) was prepared by dissolving it to the assay buffer (20 mmol/L HEPES, 0.01% Triton X-100, 1 mmol/L DTT, pH 7.5). 4 μmol/L of the substrate/ATP/metal solution (at 4 times the final concentration) was prepared by dissolving it to the kit buffer (20 mmol/L HEPES, 0.01% Triton X-100, 5 mmol/L DTT, pH 7.5). Various kinase solutions at twice the final concentration were prepared by dissolving them to the assay buffer. 5 μL of the test substance solution, 5 μL of the substrate/ATP/metal solution and 10 μL of the kinase solution were mixed in wells of a polypropylene 384-well plate, and the mixture thereof was reacted at room temperature for 1 to 5 hours. The reaction was stopped by adding 70 μL of the termination buffer (QuickScout Screening Assist MSA; Carna Biosciences). The substrate peptide and phosphorylated peptide in the reaction solution were separated and quantified by LabChip system (Perkin Elmer). The kinase reaction was evaluated based on the product ratio (P/(P+S)) calculated from the peak height (S) of the substrate peptide and the peak height (P) of the phosphorylated peptide. The various kinases used in this evaluation are as follows:
BTK, KDR, each subtype of PKCα to t, each CDK of CDK2 to 9, FAK, TIE2, RAF1 and BRAF.

The subject of experiment [2] is colon cancer cell line MC38. In words: Anti-tumor effect in a subcutaneously colon cancer cell line MC38 tumor-bearing mouse model (Example 17). The class given is in vivo, mice (C57/BL6). The settings on record: 3 mg/kg, administered 7 days after MC38 transplantation, measured until Day 26. The method, then:
Colon cancer cell line MC38 derived from C57/BL6 mice were subcutaneously transplanted to right flank region of syngeneic mice (C57/BL6, female, 6 weeks old (Charles River Japan)) (herein, the day of transplantation was designated as Day 0) to prepare subcutaneously MC38 tumor-bearing mice. Seven days after transplantation, the subcutaneously MC38 tumor-bearing mice were grouped based on tumor volume, and the Vehicle group (n=8) and group to which the compound shown in Example 1 (3 mg/kg, n=6) was administered were set. The changes in tumor volume were continuously measured until 26 days after transplantation (Day 26). The tumor volume was calculated by the following formula:
[Tumor volume (mm^3)]=[major axis (mm)]×[minor axis (mm)]^2×0.5

T1 sequence (P14902 whole entry): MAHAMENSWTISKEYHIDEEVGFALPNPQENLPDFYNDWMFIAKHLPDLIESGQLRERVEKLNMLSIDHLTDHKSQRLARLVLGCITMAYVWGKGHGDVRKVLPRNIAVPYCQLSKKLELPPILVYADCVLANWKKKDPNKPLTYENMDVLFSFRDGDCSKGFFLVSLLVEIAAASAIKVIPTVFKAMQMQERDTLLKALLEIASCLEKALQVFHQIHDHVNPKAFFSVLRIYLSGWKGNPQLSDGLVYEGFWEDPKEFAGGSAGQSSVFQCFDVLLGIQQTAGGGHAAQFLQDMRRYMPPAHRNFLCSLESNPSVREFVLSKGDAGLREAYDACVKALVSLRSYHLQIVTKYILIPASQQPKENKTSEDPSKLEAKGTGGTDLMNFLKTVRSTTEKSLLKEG

Take `COC(=O)c1cc(-c2ncc(-c3cn[nH]c3)c3onc(N)c23)c(F)cc1N` [Example 1, methyl 2-amino-5-(3-amino-7-(1H-pyrazol-4-yl)isoxazolo[4,5-c]pyridin-4-yl)-4-fluorobenzoate]: the IRF activating effect result in the experiment with THP1-Dual-STING KO cells was “no IRF activating effect”. The IDO1 inhibitory activity result on IDO1 is “no IDO1 inhibitory activity”. Moreover, in experiment [1], the “inhibitory activity against various kinases” value is given as “no significantly inhibit activities”. Besides, in experiment [2], the “tumor growth (tumor volume)” value is “almost completely suppressed the tumor growth”.
